# From patent US11624748B2, “Methods and compositions for the identification of epithelial to mesenchymal breast cancer” (Tuskegee University, priority 2019, dated 2023)
# Tests used:
# [1] = system: EMT phenotypic cells (MCF-7/TGFβ, MDA-MB-231 and T47D-shNMI); assay: phage capture assay; assay type: cell-based, human; conditions: for selectivity for EMT phenotypic cells: MDA-MB-231 and T47D-shNMI, selective = at least five times higher relative binding
# Text: (§1) Individual phage clones were characterized for their selectivity toward EMT cells, MCF-7/TGFβ and MDA-MB-231 breast cancer cells in comparison with epithelial breast cancer cells, MCF-7, T47D, and breast fibroblasts using phage capture assay and cell-based ELISA.
# (§2) In phage capture assay, briefly, target cells MCF-7/TGFβ, MDA-MB-231, MCF-7, T47D, T47D-shNMI and breast fibroblasts were cultivated in triplicate to confluence in separate wells of 12-well cell culture plates. The medium with serum was incubated in separate wells in triplicate as a control. Cells were incubated with phage (1×10^10 pfu) at RT for 1 h. Unbound phages were carefully removed and cells were washed with 100 μl washing buffer for 5 min eight times to remove non-specifically interacting phages. Cells were lysed with […] (2.5% CHAPS) for 10 min on a rocker. The lysate containing cell-interacting phages was titered in E. coli ER2738 bacterial cells. Phage recovery was calculated as a ratio of output to input phage.
# heat shock protein HSPD1 = molecular target: T1, heat shock protein HSPD1 (Homo sapiens, UniProt P10809); assay: biotinylated phage pulldown of receptor protein from MDA-MB-231; assay type: binding; conditions: pulldown from MDA-MB-231
# T1 construct: endogenous in cells; host or cells: MDA-MB-231 human breast cancer cells
# T1 sequence (P10809 27-573): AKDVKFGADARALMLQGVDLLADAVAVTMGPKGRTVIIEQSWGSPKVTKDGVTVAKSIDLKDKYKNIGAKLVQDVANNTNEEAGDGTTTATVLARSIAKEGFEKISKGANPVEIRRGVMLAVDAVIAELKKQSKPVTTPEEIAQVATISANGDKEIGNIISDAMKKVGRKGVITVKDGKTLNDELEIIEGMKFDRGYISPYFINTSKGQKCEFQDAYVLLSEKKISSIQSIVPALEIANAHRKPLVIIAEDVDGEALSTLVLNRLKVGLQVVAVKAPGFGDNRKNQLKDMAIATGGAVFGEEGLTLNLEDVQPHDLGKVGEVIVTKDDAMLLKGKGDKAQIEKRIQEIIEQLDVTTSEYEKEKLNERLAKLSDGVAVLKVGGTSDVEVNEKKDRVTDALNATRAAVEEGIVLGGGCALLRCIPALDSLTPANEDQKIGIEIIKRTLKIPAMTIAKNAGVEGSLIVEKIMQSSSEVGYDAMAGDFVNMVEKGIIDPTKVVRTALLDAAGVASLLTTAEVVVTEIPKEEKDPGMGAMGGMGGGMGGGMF
# Protocol: The biotinylated phage immobilizes the receptor protein. The Dynal magnetic beads are then functionalized with streptavidin. […] To visualize the protein, the SDS-page gel was treated with silver nitrate staining. FIG. 9B discloses SEQ ID NO: 26. FIG. 9 C provides the sequence of Heat shock protein (HSPD1), mitochondrial n=2 Tax=Homo sapiens RepID=CH60_HUMAN 5 exclusive unique peptides, 5 exclusive unique spectra, 8 total spectra, 48/573 amino acids (8% coverage). FIG. 9C discloses SEQ ID NO: 27.
# [2] = system: human breast cancer tissue microarray; assay: ex vivo phage binding to human breast cancer tissue microarray; conditions: for immunostaining for phage in invasive ductal breast cancer carcinoma: invasive ductal carcinoma sections, 10^10 pfu overnight; for binding in normal breast tissues: normal breast tissue
# Protocol: FIG. 7A-7E presents results of ex vivo phage binding to a human breast cancer tissue microarray. Tissue microarray of invasive ductal carcinoma and adjacent normal tissues were incubated with 1010 pfu of LGLRGSL phage (SEQ ID NO: 1) or Vimentin antibody and then subsequently with M13-pIII antibody for phage and secondary peroxidase antibody for phage and Vimentin, imaged with a digital light microscope.
# The breast tissue microarrays were obtained from Novus Biological (Littleton, Colo.). These include 40 breast cancer infiltrating ductal carcinoma, 10 metastatic lymph node and 9 adjacent normal breast tissues. The use of tissue was approved by the Institutional Review Board of Tuskegee University. Clinico-histopathologic characteristics of the subjects in the tissue microarray study included age, grade, hormone status and clinical stage, according to information provided by the suppliers. The expression levels were classified as negative (≤0.3), weak positive (0.3 to 1.5), or strong positive (≥1.5). Tissues were de-paraffinized in xylene and rehydrated in graded alcohols. For antigen retrieval the slides were pressure-cooked for 10 minutes. Endogenous peroxidase activity was quenched with 3% hydrogen peroxide for 5 minutes. vSlides were treated with LGLRGSL phage (SEQ ID NO: 1) (10^10 pfu) overnight. Slides were subsequently washed and blocked by 3% goat serum at room temperature for 1 hour in humidity chambers. Slides were then treated with M13-pIII phage monoclonal antibody (NEB, MA) or Vimentin antibody (Cell Siganling, Danvers, Mass.) (1:100). The HRP conjugated goat anti-mouse secondary antibody (Jackson Immunoresearch Laboratories Inc, West Grove, Pa.) was applied for 40 minutes. The antigen-antibody reaction was visualized after diaminobenzidine (Sigma-Aldrich, MO) was applied for 7 minutes. The slides were counterstained with hematoxylin (Sigma-Aldrich, MO) for 1 minute. Positive controls were included in each staining run; negative controls were obtained by omitting the primary antibody. Slides were then dehydrated in alcohols and cleared in three xylene baths before being mounted with Permount media.
# MCF-7/TGFβ = assay: immunofluorescence microscopy of phage binding; assay type: cell-based, human; conditions: 10^8 pfu, RT 1 hr
# Protocol: (§3) MCF-7, MCF-7/TGFβ, MDA-MB-231 and Hs578T (breast fibroblasts) cells were seeded in a 4-well chamber overnight. On the next day, cells were fed with fresh medium. LGLRGSL (SEQ ID NO: 1) (E11) (10^8 pfu) was added in fresh medium and incubated at RT for one hour. After removing the unbound phages, cells were washed with wash buffer (0.1% tween-20 in PBS) three times and fixed with 4% formaldehyde for 15 minutes at 37° C. Cells were permeabilized with 0.2% Triton X-100 at RT for 10 minutes. Reagent was removed and cells were washed with TBS 3 times. Before incubation with anti-phage antibody, cells were treated with blocking buffer for 30 minutes at RT. Cells were incubated with M13-pIII monoclonal antibody for 1 hour at RT, washed and incubated with the secondary goat anti-mouse IgG antibody labeled with Alexa Flour® 488 (Molecular Probes) at a dilution of 1:500 in PBS containing 1% BSA for 45 minutes at RT. Cells were washed three times after secondary antibody treatment. TOTO-3 was used for nucleus staining. Cells were covered with cover slides with Prolong Gold Anti-fade Reagents. Nail polish was used to seal the slide. Pictures were taken by using the NIKON eclipse TE 2000-E confocal microscope.
# (§4) To further confirm the specificity of LGLRGSL (SEQ ID NO: 1) (E11) towards breast cancer cells with an EMT phenotype, immunofluorescence microscopy of intact cells (MCF-7/TGF β and MDA-MB-231), and control MCF-7 breast cancer cells and breast fibroblasts (Hs578T) were used. All cells were treated with the phage (10^8 pfu) at RT for 1 hr, and subsequently incubated with primary anti-pIII antibody and then stained with secondary anti-mouse Alexa fluor 488 secondary antibody. […] No background antibody was observed as shown in the respective controls of cells treated with just primary and secondary antibodies.
# MCF-7 cells = assay: immunofluorescence microscopy of phage binding; assay type: cell-based, human; conditions: 10^8 pfu, RT 1 hr
# Protocol: as §3, §4
# [3] = system: breast fibroblasts (Hs578T); assay: immunofluorescence microscopy of phage binding; assay type: cell-based, human; conditions: 10^8 pfu, RT 1 hr
# Protocol: as §3, §4
# MDA-MB-231 = assay: immunofluorescence microscopy of phage binding; assay type: cell-based, human; conditions: 10^8 pfu, RT 1 hr
# Protocol: as §3, §4
# [4] = system: EMT cells (MCF-7/TGFβ, MDA-MB-231, T47D-shNMI); assay: phage based-ELISA (cell-based ELISA); design: species or system human; conditions: 10^10 PFU, 1 hour at RT
# Protocol: as §1
# Confluent monolayers of MCF-7/TGFβ, MDA-MB-231, MCF-7, T47D, T47D-shNMI and breast fibroblasts cells were incubated at room temperature with individual phage clones (10^10 PFU), for 1 hour at RT. Subsequently, cells were washed with PBS containing 0.1% Tween-20, incubated with primary anti-M13-biotin antibody (1:1000), for 1 h, at RT. Cells were washed again with PBS containing 0.1% Tween-20, incubated with secondary antibody streptavidin-HRP (1:2000, 45 min, RT), developed with tetra methyl benzidine and read at absorbance 650 with microplate reader (BioTek).
# activated fibroblasts = assay: phage capture assay of phage binding to cancer-conditioned media activated fibroblasts; assay type: cell-based, human
# Protocol: as §2
# Breast fibroblasts were plated in a 12.5 cm flask cultured until approximately 70% confluent. Once properly confluent, fibroblasts were then cultured in MDA-MB-231 conditioned media or normal fibroblasts media for 72 hours. Thereafter, they were exposed to E11 phage (10^8 pfu) for 2 hours and analyzed for binding in phage capture assay as described above.
substance,measurement,setting,value
GTFLFS [E32],selectivity for EMT phenotypic cells,[1]; MCF-7/TGFβ,very selective
KGDYKLF [L42],"selectivity towards MCF-7/TGFβ, MCF-7 and breast fibroblasts","[1]; MCF-7/TGFβ, MCF-7 and breast fibroblasts",not so selective
same,specificity towards MDA-MB-231 cells,[1]; MDA-MB-231 cells,high specificity
LGLRGSL [E11],binding to heat shock protein HSPD1,heat shock protein HSPD1,binds
same,immunostaining for phage in invasive ductal breast cancer carcinoma,[2],substantial staining
same,immunostaining for phage in invasive ductal breast cancer carcinoma,[2]; listed as LGLRGSL phage,Strong brown staining
same,staining intensity in tumors invading into adjacent lymph nodes,[2]; metastasis in lymph nodes,increased
same,binding in normal breast tissues,[2],no binding
same,binding in normal breast tissues,[2]; listed as LGLRGSL phage,no staining
same,staining around the invasive or leading edge of the tumor-stromal interaction,"[2]; tumor cells, invasive or leading edge",robust staining
same,phage binding (green fluorescent phage staining),MCF-7/TGFβ,abundant binding
same,phage binding (green fluorescent phage staining),MCF-7 cells,some staining
same,phage binding (green fluorescent phage staining),[3],almost no binding
same,phage binding (green fluorescent phage staining),MDA-MB-231,abundant binding
same,selectivity towards EMT cells in phage-based ELISA,[4],confirmatory
same,selectivity for EMT phenotypic cells,[1]; MCF-7/TGFβ,very selective
same,reactivity to activated fibroblasts,"activated fibroblasts; FIG. 5, FBC vs FBD",highly reactive
same,binding to activated-fibroblasts than normal fibroblasts,"activated fibroblasts; fibroblasts in MDA-MB-231 conditioned media 72 hours vs normal fibroblast media, 10^8 pfu, 2 hours",twice as much
PNLPWVP [E45],selectivity for EMT phenotypic cells,[1]; MCF-7/TGFβ,very selective
